This note sets out measurements from paper PMC10465592, “Reduced ADP off-rate by the yeast CCT2 double mutation T394P/R510H which causes Leber congenital amaurosis in humans” (Communications Biology, 2023).

Assay [1] concerns the target T1, CCT/TRiC (Saccharomyces cerevisiae).
T1 construct: gene CCT2; native complex from yeast cells, two back-to-back rings each of eight distinct subunits CCT1-CCT8; CCT2 mutations introduced in the chromosomal gene
Briefly: stopped-flow transient kinetics of phosphate release (labelled phosphate-binding protein), burst-phase rates fit to simple binding. The following applies: 25 °C, pH 7.5 Tris-HCl, 10 mM MgCl2, 50 mM KCl, 20% glycerol, 1 mM DTT; both burst phases similar; read-out: ATP affinity (Kd). It is filed as biochemical. From the text:
stopped-flow transient kinetics of phosphate release (labelled phosphate-binding protein), burst-phase rates fit to simple binding on CCT/TRiC (Saccharomyces cerevisiae) | the ATP affinities corresponding to the two burst phases are similar and found to be

Assay [2] shares this target. As to the kind of experiment: stopped-flow transient kinetics of phosphate release (labelled phosphate-binding protein), burst-phase rates fit to conformational selection. It is filed as biochemical. The following applies: 25 °C, pH 7.5 Tris-HCl, 10 mM MgCl2, 50 mM KCl, 20% glycerol, 1 mM DTT; stronger of two burst phases; read-out: ATP affinity (Kd).

pKd: −log10 of the molar value.

As to `Nc1ncnc2c1ncn2[C@@H]1O[C@H](COP(=O)(O)OP(=O)(O)OP(=O)(O)O)[C@@H](O)[C@H]1O` [ATP], the pKd in assay [1] is around 5.15; in assay [2] it was around 4.57.

The term pKd denotes the Kd on a negative log10 scale, so that one unit is a factor of ten.
